Assay results from PubChem BioAssay AID248 (DTP/NCI, 2004).
Inconclusive results and toxic doses are left out. Cut-off read from the data, not from the text of the source: active = T/C of 150% or more; inactive = T/C below 125%.

System: L1210 leukemia ip in BDF1 mice, survival T/C
Assay: NCI In Vivo Anticancer Drug Screen. Data for tumor model L1210 Leukemia (intraperitoneal) in B6D2F1 (BDF1) mice
Settings: endpoint: mean survival time, higher = longer survival
Outline: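 Tumor cells were implanted, animals were treated, and survival was followed. The result divides the treated measurement by the vehicle-control measurement.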

[1] = dose: 100.0 mg/kg/injection, schedule: Q04DX003 (ip), vehicle: saline with Tween-80
[2] = dose: 200.0 mg/kg/injection, schedule: Q04DX003 (ip), vehicle: saline with Tween-80
[3] = dose: 400.0 mg/kg/injection, schedule: Q04DX003 (ip), vehicle: saline with Tween-80
[4] = dose: 100.0 mg/kg/injection, schedule: Q01DX009 (ip), vehicle: saline with Tween-80
[5] = dose: 100.0 mg/kg/injection, schedule: Q01DX001 (ip), vehicle: carboxymethylcellulose (CMC)
[6] = dose: 200.0 mg/kg/injection, schedule: Q01DX001 (ip), vehicle: carboxymethylcellulose (CMC)
[7] = dose: 50.0 mg/kg/injection, schedule: Q01DX001 (ip), vehicle: saline
[8] = dose: 100.0 mg/kg/injection, schedule: Q01DX001 (ip), vehicle: Klucel (hydroxypropylcellulose) (HPC)
[9] = dose: 100.0 mg/kg/injection, schedule: Q01DX001 (ip), vehicle: saline
[10] = dose: 400.0 mg/kg/injection, schedule: Q04DX002 (ip), vehicle: saline with Tween-80
[11] = dose: 100.0 mg/kg/injection, schedule: Q04DX002 (ip), vehicle: saline with Tween-80
[12] = dose: 100.0 mg/kg/injection, schedule: Q01DX009 (ip), vehicle: Klucel (hydroxypropylcellulose) (HPC)
[13] = dose: 200.0 mg/kg/injection, schedule: Q01DX009 (ip), vehicle: Klucel (hydroxypropylcellulose) (HPC)

Measured: T/C

CCCNCC1OC(OC)C2OC(C)(C)OC12 (stereo unspecified)
inactive: dose: 0.78 mg/kg/injection, schedule: Q01DX009 (ip), vehicle: saline 100 % of control | dose: 1.56 mg/kg/injection, schedule: Q01DX009 (ip), vehicle: saline 96 % of control | dose: 3.12 mg/kg/injection, schedule: Q01DX009 (ip), vehicle: saline 98 % of control | dose: 100.0 mg/kg/injection, schedule: Q01DX005 (ip), vehicle: saline 99 % of control | dose: 100.0 mg/kg/injection, schedule: Q01DX009 (ip), vehicle: saline 88 % of control | dose: 200.0 mg/kg/injection, schedule: Q01DX005 (ip), vehicle: saline 106 % of control | dose: 200.0 mg/kg/injection, schedule: Q01DX009 (ip), vehicle: saline 91 % of control

CN(C=O)c1ccccc1C(=O)O
inactive: [1] 97 % of control | [2] 97 % of control | [3] 100 % of control

CCCCOC(=O)CC(=O)OC
inactive: dose: 100.0 mg/kg/injection, schedule: Q01DX009 (ip), vehicle: acetone 93 % of control | dose: 100.0 mg/kg/injection, schedule: Q04DX003 (ip), vehicle: acetone 100 % of control | dose: 200.0 mg/kg/injection, schedule: Q01DX009 (ip), vehicle: acetone 90 % of control | dose: 200.0 mg/kg/injection, schedule: Q04DX003 (ip), vehicle: acetone 103 % of control | dose: 400.0 mg/kg/injection, schedule: Q01DX009 (ip), vehicle: acetone 93 % of control | dose: 400.0 mg/kg/injection, schedule: Q04DX003 (ip), vehicle: acetone 107 % of control

CC1(C)CCOc2ccccc21
inactive: dose: 50.0 mg/kg/injection, schedule: Q01DX009 (ip), vehicle: saline with Tween-80 88 % of control | [4] 94 % of control

O=[N+]([O-])c1c[nH]c2[nH]cnc(=S)c12
inactive: [5] 102 % of control | [6] 87 % of control

CCOC(=O)C(CC(C)C)NC(=O)C(N)Cc1ccc(N(CCCl)CCCl)cc1 (stereo unspecified)
inactive: dose: 2.5 mg/kg/injection, schedule: Q01DX009 (ip), vehicle: water 116 % of control

O=C(O)CSc1ccccc1C(=O)O
inactive: [7] 93 % of control | dose: 75.0 mg/kg/injection, schedule: Q04DX003 (ip), vehicle: Klucel (hydroxypropylcellulose) (HPC) 94 % of control | [8] 96 % of control | [9] 100 % of control | dose: 150.0 mg/kg/injection, schedule: Q04DX003 (ip), vehicle: Klucel (hydroxypropylcellulose) (HPC) 90 % of control | dose: 200.0 mg/kg/injection, schedule: Q01DX001 (ip), vehicle: Klucel (hydroxypropylcellulose) (HPC) 120 % of control | dose: 200.0 mg/kg/injection, schedule: Q01DX001 (ip), vehicle: saline 102 % of control | dose: 300.0 mg/kg/injection, schedule: Q04DX003 (ip), vehicle: Klucel (hydroxypropylcellulose) (HPC) 92 % of control | dose: 400.0 mg/kg/injection, schedule: Q01DX001 (ip), vehicle: Klucel (hydroxypropylcellulose) (HPC) 102 % of control

CCCCCCCCCCCCCCCC(=O)N(CCCCN(C)C)CCCCN(C)C
inactive: dose: 2.0 mg/kg/injection, schedule: Q01DX009 (ip), vehicle: carboxymethylcellulose (CMC) 97 % of control | dose: 4.0 mg/kg/injection, schedule: Q01DX009 (ip), vehicle: carboxymethylcellulose (CMC) 98 % of control | dose: 6.0 mg/kg/injection, schedule: Q01DX009 (ip), vehicle: carboxymethylcellulose (CMC) 97 % of control

Cc1nnc(S(=O)(=O)c2ccc(N=Nc3c(N)nc(N)nc3N)cc2)s1
inactive: [5] 92 % of control | [6] 97 % of control | dose: 400.0 mg/kg/injection, schedule: Q01DX001 (ip), vehicle: carboxymethylcellulose (CMC) 94 % of control

CN(C)CCc1ccccc1
inactive: dose: 25.6 mg/kg/injection, schedule: Q04DX002 (ip), vehicle: saline with Tween-80 100 % of control | dose: 64.0 mg/kg/injection, schedule: Q04DX002 (ip), vehicle: saline with Tween-80 103 % of control | [4] 100 % of control | [1] 102 % of control | dose: 160.0 mg/kg/injection, schedule: Q04DX002 (ip), vehicle: saline with Tween-80 103 % of control | dose: 200.0 mg/kg/injection, schedule: Q01DX009 (ip), vehicle: saline with Tween-80 95 % of control | [2] 102 % of control | [10] 100 % of control | [3] 100 % of control

NC(=O)Cn1cnc2c(N)ncnc21
inactive: [1] 95 % of control | [2] 95 % of control | [3] 101 % of control

C=C(Cl)c1c(C)cc(C)c(CC#N)c1C
inactive: dose: 12.5 mg/kg/injection, schedule: Q01DX009 (ip), vehicle: DMSO 92 % of control | dose: 12.5 mg/kg/injection, schedule: Q04DX003 (ip), vehicle: DMSO 87 % of control | dose: 25.0 mg/kg/injection, schedule: Q01DX009 (ip), vehicle: DMSO 92 % of control | dose: 25.0 mg/kg/injection, schedule: Q04DX003 (ip), vehicle: DMSO 93 % of control | dose: 50.0 mg/kg/injection, schedule: Q04DX003 (ip), vehicle: DMSO 93 % of control | dose: 200.0 mg/kg/injection, schedule: Q04DX003 (ip), vehicle: DMSO 87 % of control

Cc1ccc(S(=O)(=O)N(CC2OCC3OC(C)(C)OC23)N=O)cc1 (stereo unspecified)
inactive: dose: 75.0 mg/kg/injection, schedule: Q01DX001 (ip), vehicle: saline 100 % of control | dose: 150.0 mg/kg/injection, schedule: Q01DX001 (ip), vehicle: saline 98 % of control | dose: 300.0 mg/kg/injection, schedule: Q01DX001 (ip), vehicle: saline 98 % of control

c1ccc(NC2=NCCO2)cc1
inactive: dose: 25.0 mg/kg/injection, schedule: Q04DX002 (ip), vehicle: saline with Tween-80 107 % of control | dose: 50.0 mg/kg/injection, schedule: Q04DX002 (ip), vehicle: saline with Tween-80 90 % of control | [11] 96 % of control

O=c1cc2ccccc2c(O)[nH]1
inactive: dose: 25.0 mg/kg/injection, schedule: Q01DX001 (ip), vehicle: saline 107 % of control | [7] 111 % of control | [8] 100 % of control | [9] 114 % of control

O=C(O)c1cc(Br)ccc1Br
inactive: [11] 102 % of control | dose: 200.0 mg/kg/injection, schedule: Q04DX002 (ip), vehicle: saline with Tween-80 110 % of control | [10] 105 % of control

C=CCNC(=S)N(C)Cc1ccccc1Cl
inactive: [12] 90 % of control | [13] 98 % of control

COc1ccc(C(c2ccccc2)N(N=O)C(=O)c2ccccc2)cc1 (stereo unspecified)
inactive: dose: 38.0 mg/kg/injection, schedule: Q04DX002 (ip), vehicle: Klucel (hydroxypropylcellulose) (HPC) 94 % of control | dose: 75.0 mg/kg/injection, schedule: Q04DX002 (ip), vehicle: Klucel (hydroxypropylcellulose) (HPC) 94 % of control | dose: 150.0 mg/kg/injection, schedule: Q04DX002 (ip), vehicle: Klucel (hydroxypropylcellulose) (HPC) 94 % of control

COc1ccc(OC(C)OCCOCCOC(C)=O)cc1 (stereo unspecified)
inactive: dose: 100.0 mg/kg/injection, schedule: Q04DX002 (ip), vehicle: saline 104 % of control | dose: 200.0 mg/kg/injection, schedule: Q04DX002 (ip), vehicle: saline 93 % of control | dose: 400.0 mg/kg/injection, schedule: Q04DX002 (ip), vehicle: saline 107 % of control

CSc1nc(N)cc(Nc2ccc(Cl)[nH]c2=S)n1
inactive: dose: 75.0 mg/kg/injection, schedule: Q01DX001 (ip), vehicle: Klucel (hydroxypropylcellulose) (HPC) 92 % of control | dose: 150.0 mg/kg/injection, schedule: Q01DX001 (ip), vehicle: Klucel (hydroxypropylcellulose) (HPC) 95 % of control | dose: 300.0 mg/kg/injection, schedule: Q01DX001 (ip), vehicle: Klucel (hydroxypropylcellulose) (HPC) 93 % of control

CC1=CC(C)(C)NC(=S)N1
inactive: [12] 97 % of control | dose: 100.0 mg/kg/injection, schedule: Q04DX003 (ip), vehicle: saline 113 % of control | [13] 101 % of control | dose: 200.0 mg/kg/injection, schedule: Q04DX003 (ip), vehicle: saline 106 % of control | dose: 400.0 mg/kg/injection, schedule: Q01DX009 (ip), vehicle: Klucel (hydroxypropylcellulose) (HPC) 98 % of control | dose: 400.0 mg/kg/injection, schedule: Q04DX003 (ip), vehicle: saline 107 % of control

CC1CCCC(C)N1C(=O)Nc1cccc(C(F)(F)F)c1 (stereo unspecified)
inactive: dose: 100.0 mg/kg/injection, schedule: Q01DX009 (ip), vehicle: gum acacia 108 % of control | dose: 200.0 mg/kg/injection, schedule: Q01DX009 (ip), vehicle: gum acacia 103 % of control
